Data reported in BindingDB's records for doi:10.1021/cb100387r (Riken Advanced Science Institute, 2011).
pIC50: −log10 of the molar value.

Target: Protein disulfide-isomerase (Homo sapiens, UniProt P07237)
Experiment: Reductase Activity Assay
Conditions: pH 7
Protocol: Reductase activity was assayed by measuring the PDI-catalyzed reduction of insulin in the presence of DTT, thus measuring the aggregation of reduced insulin chains at 650nm.

Sequence of Protein disulfide-isomerase (P07237 whole entry): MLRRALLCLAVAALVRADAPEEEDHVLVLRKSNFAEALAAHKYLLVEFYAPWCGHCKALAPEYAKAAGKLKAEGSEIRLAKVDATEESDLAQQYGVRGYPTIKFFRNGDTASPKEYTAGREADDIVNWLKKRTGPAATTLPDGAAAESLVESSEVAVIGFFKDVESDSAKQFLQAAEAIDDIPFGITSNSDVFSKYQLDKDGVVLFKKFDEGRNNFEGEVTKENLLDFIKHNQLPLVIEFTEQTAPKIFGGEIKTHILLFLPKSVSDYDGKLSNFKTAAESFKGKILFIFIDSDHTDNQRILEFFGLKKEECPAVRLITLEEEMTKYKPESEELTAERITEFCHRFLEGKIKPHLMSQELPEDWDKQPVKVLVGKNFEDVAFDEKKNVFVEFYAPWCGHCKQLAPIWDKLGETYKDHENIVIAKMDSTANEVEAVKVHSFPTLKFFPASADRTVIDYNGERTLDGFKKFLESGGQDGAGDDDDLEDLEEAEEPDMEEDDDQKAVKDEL

| SMILES | pIC50 |
| --- | --- |
| C/C1=C\CC(OC(=O)c2ccc(O)cc2)/C(C)=C/[C@@H](O)C(C)(C)CCC1 (stereo partly specified) [Juniferdin derivative, 1] | 6.81 |
| COc1ccc(C(=O)OC2C/C=C(\C)CCCC(C)(C)[C@H](O)/C=C/2C)cc1 (stereo partly specified) [Juniferdin derivative, 2] | < 5.00 |
| CC(=O)O[C@@H]1/C=C(\C)C(OC(=O)c2ccc(O)cc2)C/C=C(\C)CCCC1(C)C (stereo partly specified) [Juniferdin derivative, 3] | 6.34 |
| CC(=O)Oc1ccc(C(=O)OC2C/C=C(\C)CCCC(C)(C)[C@H](O)/C=C/2C)cc1 (stereo partly specified) [Juniferdin derivative, 4] | 6.20 |
| CC(=O)Oc1ccc(C(=O)OC2C/C=C(\C)CCCC(C)(C)[C@H](OC(C)=O)/C=C/2C)cc1 (stereo partly specified) [Juniferdin derivative, 5] | 6.16 |
| C/C1=C\CC(OC(=O)c2ccccc2)/C(C)=C/[C@@H](O)C(C)(C)CCC1 (stereo partly specified) [Juniferdin derivative, 6] | 5.30 |
| C/C1=C\CC(OC(=O)c2ccc(F)cc2)/C(C)=C/[C@@H](O)C(C)(C)CCC1 (stereo partly specified) [Juniferdin derivative, 7] | 6.02 |
| CCCCCCCCOC(=O)c1ccc(O)cc1 [Juniferdin derivative, 8] | < 5.00 |
| O=C(OC1CCCCCCC1)c1ccc(O)cc1 [Juniferdin derivative, 9] | 5.55 |
| O=C(OC1CCCCCCCCCCC1)c1ccc(O)cc1 [Juniferdin derivative, 10] | 6.25 |
| C/C1=C\[C@@H](O)C(C)(C)CCC[C@@]2(C)O[C@@H]2CC1OC(=O)c1ccc(O)cc1 (stereo partly specified) [Juniferdin derivative, 13] | 6.78 |
| C/C1=C\CC(OC(=O)c2ccc(O)cc2)[C@@]2(C)O[C@@H]2[C@@H](O)C(C)(C)CCC1 (stereo partly specified) [Juniferdin derivative, 14] | 5.60 |
| CC1(C)CCC[C@@]2(C)O[C@@H]2CC(OC(=O)c2ccc(O)cc2)[C@@]2(C)O[C@@H]2[C@H]1O (stereo partly specified) [Juniferdin derivative, 15] | < 5.00 |
| C/C1=C\[C@@H](O)C(C)(C)CCC[C@@](C)(O)[C@H](O)CC1OC(=O)c1ccc(O)cc1 (stereo partly specified) [Juniferdin derivative, 16] | < 5.00 |
| C/C1=C\[C@@H](O)C(C)(C)CCC[C@](C)(O)[C@@H](O)CC1OC(=O)c1ccc(O)cc1 (stereo partly specified) [Juniferdin derivative, 17] | 5.73 |
| C/C1=C\CC(O)/C(C)=C/[C@@H](O)C(C)(C)CCC1 (stereo partly specified) [Juniferol, 12] | < 5.00 |
